ChEMBL document CHEMBL6178017, “Intercepting the Downstream of the Estrogen Receptor Signaling Pathway: Discovery of a Potent and Efficient SRC-3 PROTAC Degrader for Overcoming Endocrine Resistance Breast Cancer” (J Med Chem, 2025)
Active and inactive are the calls of the source. The calls are words filed in the database; no cut-off is given here.

Columns and labels:
[1] = target: T1, Protein cereblon/Nuclear receptor coactivator 3 (Homo sapiens, UniProt Q9Y6Q9+Q96SW2); experiment: PROTAC activity at CRBN/SRC-3 in human MCF7 cells assessed as induction of SRC-3 degradation at 1 uM incubated for 24 hrs by immunoblot analysis relative to control; assay type: cell-based
[2] = test system: MCF7; experiment: Antiproliferative activity against human MCF7 cells assessed as inhibition of cell growth by CCK8 assay; assay type: functional, cell-based
[3] = test system: MCF7; experiment: Antiproliferative activity against human MCF7 cells harboring ER-alpha Y537S mutant assessed as inhibition of cell growth by CCK8 assay; assay type: functional, cell-based
[4] = target: T1, Protein cereblon/Nuclear receptor coactivator 3; experiment: PROTAC activity at CRBN/SRC-3 in human MCF7 cells assessed as induction of SRC-3 degradation at 1 uM incubated for 24 hrs by immunoblot analysis; assay type: cell-based
[5] = target: T1, Protein cereblon/Nuclear receptor coactivator 3; experiment: PROTAC activity at CRBN/SRC-3 in human MCF7 cells assessed as induction of AR degradation at 0.01 to 5 uM incubated for 24 hrs by immunoblot analysis; assay type: cell-based; settings: dose 0.01-5 µM
[6] = target: T1, Protein cereblon/Nuclear receptor coactivator 3; experiment: PROTAC activity at CRBN/SRC-3 in tamoxifen-resistant human LCC2 cells assessed as degradation of CDK4 by measuring downregulation of CDK4 protein level at 10 uM measured after 36 hrs by diaPASEF-based quantitative proteomics analysis; settings: Tamoxifen-resistant LCC2 cell
[7] = target: Cereblon/Casein kinase I alpha (Homo sapiens) (UniProt P48729+Q96SW2); experiment: PROTAC activity at CRBN/CK-1 alpha in tamoxifen-resistant human LCC2 cells assessed as degradation of CK-1alpha at 10 uM measured after 36 hrs by diaPASEF-based quantitative proteomics analysis; settings: Tamoxifen-resistant LCC2 cell
[8] = target: Protein cereblon/Zinc finger protein Helios (Homo sapiens) (UniProt Q96SW2+Q9UKS7); experiment: PROTAC activity at CRBN/IKZF2 in tamoxifen-resistant human LCC2 cells assessed as degradation of IKZF2 at 10 uM measured after 36 hrs by diaPASEF-based quantitative proteomics analysis; settings: Tamoxifen-resistant LCC2 cell
[9] = target: T1, Protein cereblon/Nuclear receptor coactivator 3; experiment: PROTAC activity at CRBN/SRC-3 in human MCF-7 cells harboring Y537S mutant assessed as induction of SRC-3 degradation measured after 36 hrs by immunoblot analysis; assay type: cell-based; settings: MCF7, dose 0.01-10 µM
[10] = target: T1, Protein cereblon/Nuclear receptor coactivator 3; experiment: PROTAC activity at CRBN/SRC-3 in human MCF-7 cells harboring Y537S mutant assessed as induction of SRC-3 degradation by measuring downregulation of SRC-3 protein level at 0.1 uM measured after 36 hrs by immunoblot analysis; assay type: cell-based; settings: MCF7
[11] = target: Protein cereblon/Nuclear receptor coactivator 1 (Homo sapiens) (UniProt Q15788+Q96SW2); experiment: PROTAC activity at CRBN/SRC-1 in human MCF7 cells assessed as induction of SRC-1 degradation at 0.01 to 10 uM measured after 36 hrs by immunoblot analysis; assay type: cell-based; settings: dose 0.01-10 µM
[12] = target: Protein cereblon/Nuclear receptor coactivator 2 (Homo sapiens) (UniProt Q15596+Q96SW2); experiment: PROTAC activity at CRBN/SRC-2 in human MCF7 cells assessed as induction of SRC-2 degradation at 0.01 to 10 uM measured after 36 hrs by immunoblot analysis; assay type: cell-based; settings: dose 0.01-10 µM
[13] = target: T1, Protein cereblon/Nuclear receptor coactivator 3; experiment: PROTAC activity at CRBN/SRC-3 in human MCF7 cells assessed as induction of SRC-3 degradation at 1 uM preincubated with proteasome inhibitor, MG-132 for 2 hrs followed by incubation with compound and measured after 36 hrs by immunoblot analysis; assay type: cell-based
[14] = target: T1, Protein cereblon/Nuclear receptor coactivator 3; experiment: PROTAC activity at CRBN/SRC-3 in human MCF7 cells assessed as induction of SRC-3 degradation at 1 uM preincubated with SI-2 for 2 hrs followed by incubation with compound and measured after 36 hrs by immunoblot analysis; assay type: cell-based
[15] = target: T1, Protein cereblon/Nuclear receptor coactivator 3; experiment: PROTAC activity at CRBN/SRC-3 in human MCF7 cells assessed as induction of SRC-3 degradation at 1 uM preincubated with autophagy inhibitor, chloroquine for 2 hrs followed by incubation with compound and measured after 36 hrs by immunoblot analysis; assay type: cell-based
[16] = Induction of apoptosis in tamoxifen-resistant human LCC2 cells assessed as viable cells at 10 uM incubated for 48 hrs by AnnexinV-FITC/PI staining based flow cytometry (reference value: 88.09%); assay type: functional; settings: Tamoxifen-resistant LCC2 cell, read-out: Activity
[17] = Induction of apoptosis in tamoxifen-resistant human LCC2 cells assessed as early apoptotic cells at 5 uM incubated for 48 hrs by AnnexinV-FITC/PI staining based flow cytometry (reference value: 5.92%); assay type: functional, Tamoxifen-resistant LCC2 cell
[18] = Induction of apoptosis in tamoxifen-resistant human LCC2 cells assessed as late apoptotic cells at 5 uM incubated for 48 hrs by AnnexinV-FITC/PI staining based flow cytometry (reference value: 4.83%); assay type: functional, Tamoxifen-resistant LCC2 cell
[19] = Induction of apoptosis in tamoxifen-resistant human LCC2 cells assessed as necrotic cells at 1 uM incubated for 48 hrs by AnnexinV-FITC/PI staining based flow cytometry (reference value: 1.16%); assay type: functional, Tamoxifen-resistant LCC2 cell
[20] = test system: MCF7; experiment: Induction of cell cycle arrest in human MCF7 cells assessed as accumulation of cells at G1 phase at 5 to 20 uM incubated for 48 hrs by propidium iodide staining based flow cytometry; assay type: functional; settings: dose 5-20 µM
[21] = Induction of cell cycle arrest in tamoxifen-resistant human LCC2 cells assessed as accumulation of cells at G1 phase at 20 uM incubated for 48 hrs by propidium iodide staining based flow cytometry (reference value: 78.71%); assay type: functional
[22] = Induction of cell cycle arrest in tamoxifen-resistant human LCC2 cells assessed as accumulation of cells at S phase at 10 uM incubated for 48 hrs by propidium iodide staining based flow cytometry (reference value: 9.72%); assay type: functional
[23] = Intrinsic clearance in human liver microsomes in presence of NADPH by LC-MS/MS analysis; assay type: ADME, Microsome; settings: read-out: CLH
[24] = Metabolic stability of the compound in human plasma measured after 2 hrs by LC-MS/MS analysis; assay type: ADME, cell-free; settings: read-out: Stability
[25] = target: Cytochrome P450 2C9 (Homo sapiens, UniProt P11712); experiment: Inhibition of CYP2C9 (unknown origin) using diclofenac as substrate; assay type: ADME
[26] = Cmax in Balb/c mouse at 2 mg/kg, iv by LC-MS/MS analysis; assay type: ADME, organism-based; settings: in vivo
[27] = Half life in Balb/c mouse at 4 mg/kg, ip by LC-MS/MS analysis; assay type: ADME, organism-based; settings: in vivo
[28] = Tmax in Balb/c mouse at 4 mg/kg, ip by LC-MS/MS analysis; assay type: ADME, organism-based; settings: in vivo
[29] = Cmax in Balb/c mouse at 4 mg/kg, ip by LC-MS/MS analysis; assay type: ADME, organism-based; settings: in vivo
[30] = AUC (0 to infinity) in Balb/c mouse at 20 mg/kg, po by LC-MS/MS analysis; assay type: ADME, organism-based; settings: in vivo
[31] = test system: Mus musculus; experiment: In vivo PROTAC activity at CRBN/SRC-3 in Balb/c mouse xenografted with tamoxifen-resistant human LCC2 cells assessed as induction of SRC-3 degradation in tumor tissues at 5 uM/Kg, ip administered once every 2 days for 23 days and measured on day 25 by western blot analysis; assay type: functional, organism-based; settings: time 25.0 day
[32] = Toxicity against Balb/c mouse xenografted with tamoxifen-resistant human LCC2 cells assessed as effect on body weight at 10 uM/Kg, ip administered once every 2 days for 23 days; assay type: organism-based; settings: in vivo, 552 h, time 23 day

T1 sequence (Q96SW2 whole entry partner): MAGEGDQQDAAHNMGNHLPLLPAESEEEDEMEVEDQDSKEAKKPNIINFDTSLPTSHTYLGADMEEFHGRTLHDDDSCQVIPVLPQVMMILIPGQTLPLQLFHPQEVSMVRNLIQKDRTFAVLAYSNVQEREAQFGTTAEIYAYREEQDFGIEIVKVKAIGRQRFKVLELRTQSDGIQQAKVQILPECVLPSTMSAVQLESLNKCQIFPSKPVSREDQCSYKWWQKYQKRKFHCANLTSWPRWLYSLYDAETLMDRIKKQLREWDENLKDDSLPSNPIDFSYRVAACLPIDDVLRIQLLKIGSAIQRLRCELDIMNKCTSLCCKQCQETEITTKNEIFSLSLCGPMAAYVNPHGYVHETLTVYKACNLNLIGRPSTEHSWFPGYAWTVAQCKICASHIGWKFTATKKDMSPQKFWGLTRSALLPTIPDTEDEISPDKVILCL
T1 sequence (Q9Y6Q9 2-1424 limits assumed): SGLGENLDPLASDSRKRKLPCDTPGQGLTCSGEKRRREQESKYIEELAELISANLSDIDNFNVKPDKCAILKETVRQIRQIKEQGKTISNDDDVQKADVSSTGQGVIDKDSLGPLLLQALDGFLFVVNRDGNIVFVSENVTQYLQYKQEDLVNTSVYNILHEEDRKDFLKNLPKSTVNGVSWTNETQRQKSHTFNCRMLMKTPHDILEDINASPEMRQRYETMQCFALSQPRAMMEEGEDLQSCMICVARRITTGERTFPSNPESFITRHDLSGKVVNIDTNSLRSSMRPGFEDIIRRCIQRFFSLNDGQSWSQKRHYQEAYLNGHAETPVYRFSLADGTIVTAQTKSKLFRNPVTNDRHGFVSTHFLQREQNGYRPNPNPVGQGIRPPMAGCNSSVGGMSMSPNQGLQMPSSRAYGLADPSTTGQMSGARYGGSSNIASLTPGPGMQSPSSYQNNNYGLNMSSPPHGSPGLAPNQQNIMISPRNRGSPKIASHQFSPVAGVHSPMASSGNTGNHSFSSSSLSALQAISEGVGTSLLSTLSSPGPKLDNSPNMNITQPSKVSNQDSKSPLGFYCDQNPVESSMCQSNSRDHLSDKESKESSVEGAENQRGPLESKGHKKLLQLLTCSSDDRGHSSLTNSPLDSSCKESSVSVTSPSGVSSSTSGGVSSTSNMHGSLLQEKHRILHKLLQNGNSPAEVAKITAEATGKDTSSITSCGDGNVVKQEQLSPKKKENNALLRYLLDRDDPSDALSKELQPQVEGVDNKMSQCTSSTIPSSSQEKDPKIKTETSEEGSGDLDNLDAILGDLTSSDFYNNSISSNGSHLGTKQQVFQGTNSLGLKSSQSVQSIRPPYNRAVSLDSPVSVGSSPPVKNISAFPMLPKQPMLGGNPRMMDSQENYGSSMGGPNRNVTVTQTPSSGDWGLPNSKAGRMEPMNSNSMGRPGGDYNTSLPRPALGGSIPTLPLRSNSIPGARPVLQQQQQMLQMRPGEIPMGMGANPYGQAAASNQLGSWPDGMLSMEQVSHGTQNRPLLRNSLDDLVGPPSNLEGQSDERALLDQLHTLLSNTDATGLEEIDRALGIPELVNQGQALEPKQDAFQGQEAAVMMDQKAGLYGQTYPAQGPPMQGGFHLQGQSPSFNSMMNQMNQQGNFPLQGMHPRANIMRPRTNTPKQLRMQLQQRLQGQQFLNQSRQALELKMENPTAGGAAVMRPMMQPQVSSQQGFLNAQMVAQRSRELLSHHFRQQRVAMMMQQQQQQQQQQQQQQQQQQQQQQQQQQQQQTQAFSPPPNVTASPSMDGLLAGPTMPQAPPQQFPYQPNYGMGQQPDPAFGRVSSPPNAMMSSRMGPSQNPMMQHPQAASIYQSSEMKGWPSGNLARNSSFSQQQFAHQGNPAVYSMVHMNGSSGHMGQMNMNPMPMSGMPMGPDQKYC
Sequence of Protein cereblon/Nuclear receptor coactivator 1 (Homo sapiens) (Q15788 whole entry, looked up): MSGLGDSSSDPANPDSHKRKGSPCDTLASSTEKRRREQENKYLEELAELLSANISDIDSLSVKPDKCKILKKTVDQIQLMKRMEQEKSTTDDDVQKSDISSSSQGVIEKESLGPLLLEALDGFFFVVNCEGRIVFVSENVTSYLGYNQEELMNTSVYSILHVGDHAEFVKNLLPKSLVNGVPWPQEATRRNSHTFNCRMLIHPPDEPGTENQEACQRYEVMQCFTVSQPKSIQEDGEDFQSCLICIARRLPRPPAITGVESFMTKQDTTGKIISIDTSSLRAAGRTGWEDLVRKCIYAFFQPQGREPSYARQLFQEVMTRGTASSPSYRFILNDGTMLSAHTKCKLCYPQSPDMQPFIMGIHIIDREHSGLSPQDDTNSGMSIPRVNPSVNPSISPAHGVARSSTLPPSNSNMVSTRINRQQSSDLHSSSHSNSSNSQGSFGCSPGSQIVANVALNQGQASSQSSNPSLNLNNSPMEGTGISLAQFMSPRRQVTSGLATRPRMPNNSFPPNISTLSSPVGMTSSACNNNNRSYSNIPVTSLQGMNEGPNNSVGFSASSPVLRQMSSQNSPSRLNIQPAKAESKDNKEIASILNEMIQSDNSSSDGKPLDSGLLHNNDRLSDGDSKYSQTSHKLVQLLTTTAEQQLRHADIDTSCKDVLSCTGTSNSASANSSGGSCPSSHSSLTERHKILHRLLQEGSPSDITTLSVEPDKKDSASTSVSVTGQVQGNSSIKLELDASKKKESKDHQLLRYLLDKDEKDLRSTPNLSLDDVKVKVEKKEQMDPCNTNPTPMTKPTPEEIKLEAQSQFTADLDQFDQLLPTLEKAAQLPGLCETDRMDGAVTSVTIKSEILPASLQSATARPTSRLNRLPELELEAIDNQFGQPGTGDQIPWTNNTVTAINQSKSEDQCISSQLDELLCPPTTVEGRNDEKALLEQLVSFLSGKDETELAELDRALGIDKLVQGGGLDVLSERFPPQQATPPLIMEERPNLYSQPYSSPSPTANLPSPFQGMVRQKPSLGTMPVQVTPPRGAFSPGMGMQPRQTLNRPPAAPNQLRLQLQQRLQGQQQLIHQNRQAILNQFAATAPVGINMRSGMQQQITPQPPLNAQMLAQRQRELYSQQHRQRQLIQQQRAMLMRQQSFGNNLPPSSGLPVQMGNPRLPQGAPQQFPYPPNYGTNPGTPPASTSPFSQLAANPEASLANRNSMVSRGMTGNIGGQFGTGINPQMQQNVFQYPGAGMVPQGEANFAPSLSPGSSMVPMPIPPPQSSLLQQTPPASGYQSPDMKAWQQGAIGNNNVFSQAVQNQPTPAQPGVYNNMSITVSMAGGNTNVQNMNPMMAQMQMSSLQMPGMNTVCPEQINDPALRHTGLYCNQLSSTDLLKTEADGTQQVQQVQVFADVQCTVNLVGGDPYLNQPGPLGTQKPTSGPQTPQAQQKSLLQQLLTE
Sequence of Protein cereblon/Nuclear receptor coactivator 1 (Homo sapiens) (Q96SW2 whole entry, looked up): as the sequence (Q96SW2 whole entry partner) above
Sequence of Protein cereblon/Zinc finger protein Helios (Homo sapiens) (Q96SW2 whole entry, looked up): as the sequence (Q96SW2 whole entry partner) above
Sequence of Protein cereblon/Zinc finger protein Helios (Homo sapiens) (Q9UKS7 whole entry, looked up): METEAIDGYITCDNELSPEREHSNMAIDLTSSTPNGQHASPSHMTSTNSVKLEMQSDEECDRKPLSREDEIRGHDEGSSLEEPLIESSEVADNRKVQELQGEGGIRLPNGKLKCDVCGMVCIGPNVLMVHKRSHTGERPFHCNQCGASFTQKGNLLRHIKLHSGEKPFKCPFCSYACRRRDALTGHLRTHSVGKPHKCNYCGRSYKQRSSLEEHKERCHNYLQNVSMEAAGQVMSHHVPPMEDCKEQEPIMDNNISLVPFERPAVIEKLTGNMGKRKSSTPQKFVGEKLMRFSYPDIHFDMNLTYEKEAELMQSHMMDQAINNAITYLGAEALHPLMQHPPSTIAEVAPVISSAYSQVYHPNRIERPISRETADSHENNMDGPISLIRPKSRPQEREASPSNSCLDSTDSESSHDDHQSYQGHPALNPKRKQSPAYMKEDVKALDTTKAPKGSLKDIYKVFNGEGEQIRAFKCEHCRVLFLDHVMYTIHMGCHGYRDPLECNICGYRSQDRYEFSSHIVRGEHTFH
Sequence of Cereblon/Casein kinase I alpha (Homo sapiens) (P48729 2-337 limits assumed): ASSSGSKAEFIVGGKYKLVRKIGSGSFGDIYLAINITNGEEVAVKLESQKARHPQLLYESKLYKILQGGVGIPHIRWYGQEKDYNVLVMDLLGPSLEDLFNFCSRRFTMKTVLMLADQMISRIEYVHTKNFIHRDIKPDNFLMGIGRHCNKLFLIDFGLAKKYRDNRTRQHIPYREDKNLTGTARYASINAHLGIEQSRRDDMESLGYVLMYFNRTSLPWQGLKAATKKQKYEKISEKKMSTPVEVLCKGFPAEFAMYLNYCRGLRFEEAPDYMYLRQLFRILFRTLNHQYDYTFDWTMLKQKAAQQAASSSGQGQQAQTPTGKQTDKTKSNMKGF
Sequence of Cereblon/Casein kinase I alpha (Homo sapiens) (Q96SW2 whole entry partner): as the sequence (Q96SW2 whole entry partner) above
Sequence of Cytochrome P450 2C9 (P11712 whole entry): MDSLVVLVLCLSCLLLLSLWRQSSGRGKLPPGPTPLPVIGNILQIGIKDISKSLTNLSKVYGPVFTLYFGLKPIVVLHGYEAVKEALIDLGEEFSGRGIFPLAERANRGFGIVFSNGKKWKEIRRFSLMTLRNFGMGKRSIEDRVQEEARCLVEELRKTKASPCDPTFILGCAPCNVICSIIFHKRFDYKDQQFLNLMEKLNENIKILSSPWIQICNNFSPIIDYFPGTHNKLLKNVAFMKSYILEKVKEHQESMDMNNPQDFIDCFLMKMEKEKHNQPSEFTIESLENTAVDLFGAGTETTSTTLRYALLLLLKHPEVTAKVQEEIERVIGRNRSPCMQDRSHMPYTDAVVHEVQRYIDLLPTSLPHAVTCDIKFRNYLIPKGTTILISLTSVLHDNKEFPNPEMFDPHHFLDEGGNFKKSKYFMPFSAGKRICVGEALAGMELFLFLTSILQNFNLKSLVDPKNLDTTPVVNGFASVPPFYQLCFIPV

C/C(=N\Nc1nc2ccccc2n1C1CN(C2CCN(c3cccc4c3C(=O)N(C3CCC(=O)NC3=O)C4=O)CC2)C1)c1ccccn1 (configuration not stated)
Activity [1]: 71% | IC50 [2]: 10 nM | IC50 [3]: 3 nM | Activity [4]: Active | Activity [5]: Active; Downregulation Effect Is Not As Pronounced As Er-Alpha | Activity [6]: Active | Activity [7]: inactive | Activity [8]: inactive | Activity [9]: Dose-dependent-effect | Activity [10]: Active | Activity [11]: Active; Moderate Degradation Against Src-1 Compared To Src-3 Observed | Activity [12]: Active; Minimal Activity Against Src-2 Compared To Src-3 Observed | Activity [13]: inactive | Activity [14]: Active | Activity [15]: Active | viability at 10 µM [16]: 48.7% | Activity [17]: 10.14% | Activity [18]: 24.79% | Activity [19]: 9.63% | Activity [20]: Active | Activity [21]: 85.05% | Activity [22]: 12.41% | CLint scaled [23]: 190 mL/min/kg | remaining at 2 h [24]: > 50% | IC50 [25]: > 10000 nM | Cmax [26]: 148 ng/mL | half-life [27]: 3.46 h | Tmax [28]: 0.33 h | Cmax [29]: 31.2 ng/mL | AUC(0-inf) [30]: 58.4 ng·h/mL | Activity [31]: Active | Activity [32]: Non-toxic
